Test results taken from patent US5021435A, “Certain pyridyl-thiazolidin-4-one having anti-ulcer activity” (Sumitomo Pharmaceuticals Company, Limited, priority 1988, dated 1991).
Converted amounts (≈) assume the structure as drawn. Like-named read-outs stand apart in the source and are kept apart here.

What was measured:
[1] = system: water-immersion and restraint stress induced gastric ulcer; experiment: Antiulcer test: water-immersion and restraint stress induced gastric ulcer model in rats; type: in vivo, Sprague-Dawley strain male rats; conditions: for inhibition in vivo at 100 mg/kg / inhibition in vivo at 50 mg/kg / inhibition in vivo at 30 mg/kg: Rattus norvegicus, po, 17 h, read-out: Effect (inhibitory percentage of ulcer formation, judgement); for inhibition in vivo at 100 mg/kg: 100 mg/kg oral; for inhibition of stress-induced ulcer (in words): discussion statement; for Test on anti-ulceration (ulcer caused by stress), Test (1): 100 mg/kg P.O.
Experimental: Sprague-Dawley strain male rats (body weight: 200-250 g) fasted for 24 hours (with free access of water) were used for the test. (1) Antiulcer test Anticular effect of the compound was examined by means of water-immersion and restraint stress induced gastric ulcer model in rats. The ulcer experiment was performed in accordance with the method of Takagi and Okabe referred to hereinafter. Rats were immobilized in a restraint cage. The animals were then immersed vertically to the level of the xiphoid process in water bath (23° C.) for 17 hr and killed by deep ether anesthesia. The stomach of each rat was removed and inflated by injecting 10 ml of 1% formalin to fix the inner and outer layer of gastric wall. Subsequently, the stomach was incised along the greater curveture and the length of ulcers in glandular portion was measured. The sum of the length (mm) of each ulcer was used as an ulcer index. Test compound was suspended in 0.5% methylcellulose solution and was orally administered at a volume of 5 ml/kg to the rat 30 minutes prior to stress loading. To the control group was administered vehicle alone at the same volume. Inhibitory percentage of ulcer formation of the compound was calculated from the following formula. [formula]

PAF-induced ulcer [2] = experiment: Test on PAF-induced ulcer; type: in vivo, Sprague-Dawley strain male rats; conditions: for Test on inhibition of PAF-induced ulcer, Test (3): rat, 100 mg/kg P.O. 30 minutes before PAF, effective = statistically significant vs control
Experimental: (§1) Sprague-Dawley strain male rats (body weight: 200-250 g) fasted for 24 hours (with free access of water) were used for the test.
(3) Test on PAF-induced ulcer
Inhibitory effect of the compound on PAF-induced ulcer was examined. PAF-induced ulcer in rat was caused by intravenous administration of 10 μg/kg of PAF. One hour after PAF administration, rat was killed under deep ether anesthesia and stomach was removed. The stomach was inflated and fixed by injecting 10 ml of 1% formalin solution and then cut open along greater curvature. Areas (mm^2) of the ulcerated portions were measured and sum of them was taken as ulcer-index. Test compound was suspended in a 0.5% methylcellulose solution and orally administered at a volume of 5 ml/kg 30 minutes before the administration of PAF. Vehicle alone was administered to control rat at the same volume with test group. With reference to the effect of the compound to inhibit ulceration, results of treated group and those of control group were compared and those which have a statistical significance was judged to be effective.

[3] = system: PAF-induced platelet aggregation; experiment: Anti-PAF test in vitro (inhibitory action on PAF-induced platelet aggregation, PRP); type: cell-based, rabbit (male Japanese white rabbits); conditions: Oryctolagus cuniculus, rabbit PRP
Experimental: The inhibition of PAF-induced platelet aggregation was examined by using a platelet-rich plasma (PRP) of rabbit according to the method of Mustard et al. [J. F. Mustard et al., J. Lab. Blin. Med., 64, 548 (1964)], which is an improved method of Born [G.V.R. Born, J. Physiol., London, 162, 67 (1962) ]. That is, 80-100 ml of blood per animal was collected from carotoid arteries of conscious male Japanese white rabbits into a polyethylene vessel containing 1/10 the volume of a 3.8% sodium citrate solution. A portion (about 3 ml) of the collected blood was centrifuged at a high speed (11,000 rpm) for 60 seconds to give a platelet-poor plasma (PPP) as supernatant. The remainder of the blood was centrifuged at a low speed (1000 rpm) for 10 minutes to give a platelet-rich plasma (PRP) as supernatant.
The degree of platelet aggregation was determined by nephelometry with an aggregometer (Hematracer, Niko Biosciene Co.) while stirring the PRP at 1000 rpm at 37° C. The degree of platelet aggregation was expressed in terms of the light transmittance (%), the value of PRP being taken as 0% and the value of […]. A portion (0.2 ml) of the PRP was placed into a glass cuvette containing a silicone-coated stirring iron bar, and 2 μl of dimethylsulfoxide was added. After 2 minutes, PAF dissolved in physiological saline containing 0.25% BSA was added to give a final PAF concentration of […], and the maximum aggregation was determined. To measure the inhibitory activity of test compounds on the platelet aggregation induced by PAF, 2 μl of a dimethylsulfoxide solution of each test compound was added in place of dimethylsulfoxide. The inhibitory percentage by the test compound of PAF-induced platelet aggregation was calculated according to the following equation and the value of IC50 was determined. [formula]

[4] = system: centrally stimulated gastric acid secretion (baclofen); experiment: Central acting inhibitory effect of gastric acid secretion: baclofen-stimulated (central); type: in vivo, Sprague-Dawley strain male rats; conditions: rat, 30 mg/kg into duodenum 2 hours before stimulant; baclofen 2 mg/kg s.c.
Experimental: as §1
(§2) (2) Test on central acting inhibitory effect of gastric acid secretion
(§3) Whether the antisecretory effect of the compound is based on central action or not was judged according to mode of antisecretory action of the compound to centrally stimulated gastric acid secretion and peripherally stimulated gastric acid secretion. […]
(§4) We determined the site of action (central or peripheral) of the compound by the result from above examination. […]
(§5) Gastric acid was collected every 20 min. by flushing the gastric lumen with 5 ml saline. The acid content of each sample was determined by titration of 0.02 N-NaOH.
(§6) Peripheral stimulation of gastric acid secretion was carried out by subcutaneous administration of 10 mg/kg of histamine or 1 mg/kg of bethanechol. […] Inhibitory percentage of acid secretion of the compound was calculated from the following formula. […]

[5] = system: peripherally stimulated gastric acid secretion (bethanechol); experiment: Gastric acid secretion stimulated peripherally by bethanechol; type: in vivo, Sprague-Dawley strain male rats; conditions: rat, 30 mg/kg into duodenum 2 hours before stimulant; bethanechol 1 mg/kg s.c.
Experimental: as §1, §2, §3, §4, §5, §6

[6] = system: peripherally stimulated gastric acid secretion (histamine); experiment: Gastric acid secretion stimulated peripherally by histamine; type: in vivo, Sprague-Dawley strain male rats; conditions: rat, 30 mg/kg into duodenum 2 hours before stimulant; histamine 10 mg/kg s.c.
Experimental: as §1, §2, §3, §4, §5, §6

PAF-induced ulcer [7] = conditions: cited from earlier work
[8] = rat, 30 minutes prior to stress
[9] = rat, 50 mg/kg oral, 30 minutes prior to stress

## CN1C(=O)[C@H](c2ccc(F)cc2)S[C@@H]1c1cccnc1 (relative stereo) [Example 221]
[1]; [8]
  inhibition in vivo at 100 mg/kg: > 80%

## CN1C(=O)[C@H](c2ccc(C(F)(F)F)cc2)S[C@@H]1c1cccnc1 (relative stereo) [Example 246]
[1]; [8]
  inhibition in vivo at 100 mg/kg: 60 to 80%

## COc1cc([C@H]2CC[C@H](c3cc(OC)c(OC)c(OC)c3)O2)cc(OC)c1OC (relative stereo) [Example L-652731, trans2,5-bis(3,4,5-trimethoxyphenyl)tetrahydrofuran, reference compound]
PAF-induced ulcer [2]; discussion statement
  inhibition of PAF-induced ulcer (in words): remarkably inhibited
PAF-induced ulcer [2]
  Test on inhibition of PAF-induced ulcer, Test (3): Effective
[1]
  inhibition of stress-induced ulcer (in words): cannot be inhibited
[1]; rat
  Test on anti-ulceration (ulcer caused by stress), Test (1): Ineffective
[3]
  IC50: 0.2 µg/mL (≈ 0.494 µM)

## CN1C(=O)C(c2ccc(Cl)cc2)SC1c1cccnc1 (single isomer, unassigned) [2 (Isomer II), 5-(4-Chlorophenyl)-3-methyl-2-(3-pyridyl)-thiazolidin-4-one]
[4]
  Inhibitory percentage of acid secretion (judgement), stimulant baclofen: +++ (Not less than 80%.)
[5]
  Inhibitory percentage of acid secretion (judgement), stimulant bethanechol: - (Less than 40%.)
[6]
  Inhibitory percentage of acid secretion (judgement), stimulant histamine: - (Less than 40%.)
[1]; [9]
  inhibition in vivo at 50 mg/kg: > 80%

## CN1C(=O)C(c2ccc(Cl)cc2)[S+]([O-])C1c1cccnc1 (single isomer, unassigned) [Example 30, 5-(4-chlorophenyl)-3-methyl-2-(3-pyridyl)-1-oxo-thiazolidin-4-one]
[1]; [9]
  inhibition in vivo at 50 mg/kg: 40 to 60%

## CN1C(=O)C(c2ccc(Cl)cc2)[S+]([O-])C1c1cccnc1 (single isomer, unassigned) [Example 31, 5-(4-chlorophenyl)-3-methyl-2-(3-pyridyl)-1-oxo-thiazolidin-4-one]
[1]; rat, 50 mg/kg oral, 30 minutes prior to stress, 50 mg/kg
  Effect (inhibitory percentage of ulcer formation, judgement): ++ (Not less than 60% and less than 80%.)

## CN1C(=O)[C@@H](c2ccc(Cl)cc2)S[C@H]1c1cccnc1 (single isomer, unassigned) [Example 33, (+)-cis-5-(4-chlorophenyl)-3-methyl-2-(3-pyridyl)thiazolidin-4-one]
[1]; rat, 30 mg/kg oral, 30 minutes prior to stress
  inhibition in vivo at 30 mg/kg: > 80%

## CN1C(=O)[C@@H](c2ccc(Cl)cc2)S[C@H]1c1cccnc1 (single isomer, unassigned) [Example 34, (-)-cis-5-(4-chlorophenyl)-3-methyl-2-(3-pyridyl)thiazolidin-4-one]
[1]; [8]
  inhibition in vivo at 100 mg/kg: 60 to 80%

## CN/C(=N/CCSCc1nc[nH]c1C)NC#N [Cimetidine, reference compound]
PAF-induced ulcer [7]; discussion statement, Table 5 cites Nature 319, 54-56 (1986)
  inhibition of PAF-induced ulcer (in words): cannot be inhibited
PAF-induced ulcer [7]; table head 100 mg/kg P.O., (*) Nature 319, 54-56 (1986)
  Test on inhibition of PAF-induced ulcer: Ineffective
[1]
  inhibition in vivo at 30 mg/kg: 60 to 80%
  inhibition of stress-induced ulcer (in words): can be inhibited
[1]; rat
  Test on anti-ulceration (ulcer caused by stress), Test (1): Effective

## CN1C(=O)C(c2ccc(Cl)cc2)SC1c1cccnc1 (stereo not drawn) [Example 1, 5-(4-chlorophenyl)-3-methyl-2-(3-pyridyl)thiazolidin-4-one]
PAF-induced ulcer [2]
  Test on inhibition of PAF-induced ulcer, Test (3): Effective
[1]; [9]
  inhibition in vivo at 50 mg/kg: 60 to 80%
[1]; rat
  Test on anti-ulceration (ulcer caused by stress), Test (1): Effective
[3]
  IC50: 5.8 µg/mL (≈ 19 µM)

## CN1C(=O)C(c2ccc(F)cc2)SC1c1cccnc1 (stereo not drawn) [Example 42]
PAF-induced ulcer [2]
  Test on inhibition of PAF-induced ulcer, Test (3): Effective
[1]; [9]
  inhibition in vivo at 50 mg/kg: > 80%
[1]; rat
  Test on anti-ulceration (ulcer caused by stress), Test (1): Effective
[3]
  IC50: 4 µg/mL (≈ 13.9 µM)

## CN1C(=O)C(c2ccc(Cl)cc2)SC1c1ccncc1 (stereo not drawn) [Example 46]
[1]; [9]
  inhibition in vivo at 50 mg/kg: 60 to 80%

## COc1ccc(C2SC(c3cccnc3)N(C)C2=O)cc1 (stereo not drawn) [Example 48]
[1]; [9]
  inhibition in vivo at 50 mg/kg: 40 to 60%

## CN1C(=O)C(c2ccccc2)SC1c1cccnc1 (stereo not drawn) [Example 52]
[1]; [9]
  inhibition in vivo at 50 mg/kg: 40 to 60%

## O=C1NC(c2cccnc2)SC1c1ccc(Cl)cc1 (stereo not drawn) [Example 178]
[1]; [8]
  inhibition in vivo at 100 mg/kg: 40 to 60%

## CN1C(=O)C(c2ccccc2F)SC1c1cccnc1 (stereo not drawn) [Example 198]
[1]; [8]
  inhibition in vivo at 100 mg/kg: > 80%

## CN1C(=O)C(c2ccccc2F)[S+]([O-])C1c1cccnc1 (stereo not drawn) [Example 199]
[1]; [8]
  inhibition in vivo at 100 mg/kg: > 80%

## COc1ccc(C2NC(=O)C(C)S2)cc1OC (stereo not drawn) [Mezolidon, 2-(3,4-dimethoxyphenyl)-5-methylthiazolidin-4-one, reference compound]
[1]; [8]
  inhibition in vivo at 100 mg/kg: < 40%
[1]; statement in words
  effect by the test method employed in the present invention: nearly ineffective
